Source: patent US11187660B2, “Fluorescent probes for monitoring voltage by photo-induced electron transfer” (The Regents of the University of California, priority 2011, dated 2021)

How the values were obtained:
[1] = Absorbance and emission spectra in aqueous buffer with Triton X-100; assay type: physicochemical; settings: 5 mM sodium phosphate, pH 9, 0.1% Triton X-100
Procedure: FIG. 8A, FIG. 8B, and FIG. 8C show the normalized absorbance and emission spectra for exemplary compounds of the invention in 5 mM sodium phosphate, pH 9 with 0.1% Triton X-100. Black lines are absorbance spectra; grey lines are emission spectra. a) VF1.4.Cl, b) VF2.4.Cl, and c) VF2.1.Cl.
All dyes feature emission and excitation profiles typical of dichlorofluoresceins (VF1.4.Cl: λmax=521 nm, ε=93,000 M^−1·cm^−1, λem=534 nm, Φ=0.24; VF2.4.Cl: λmax=522 nm, ε=97,000 M^−1·cm^−1, λem=536 nm, Φ=0.054; VF2.1.Cl: λmax=522 nm, ε=98 000 M^−1·cm^−1, λcm=535 nm, Φ=0.057, 5 mM sodium phosphate, pH 9, 0.1% Triton X-100) (FIG. 8).
UV absorbance and fluorescence spectra were recorded on a Cary 3E (Varian) and Fluorolog 2 (Spex) fluorimeter, respectively. Analytical, semi-preparative, and preparative HPLCs were performed on Agilent HPLCs, with Luna C18(2) columns (Phenomenex) using water (solvent A) and acetonitrile (solvent B) with 0.05% TFA as an additive. Low resolution ESI mass spectrometry was performed on an Agilent LC/MSD Trap XCT coupled to an Agilent HPLC. High resolution mass spectra were acquired on a ThermoFisher Orbitrap XL hybrid mass spectrometer. ^1H NMR spectra were collected in CDCl3 or d6-DMSO (Cambridge Isotope Laboratories, Cambridge, Mass.) at 25° C. on a 400 Varian Mercury Plus or Jeol ECA 500 spectrometer at the Department of Chemistry and Biochemistry NMR Facility at the University of California, San Diego. All chemical shifts are reported in the standard δ notation of parts per million using the peak of residual proton signals of CDCl3 or d6-DMSO as an internal reference.

HEK cells = test: Bleach rate in HEK cells; assay type: cell-based, human; settings: for bleach rate: HEK cells, 7 W/cm^2; for bleach rate, fold smaller than di-4-ANEPPS: identical illumination conditions
Procedure: The dibutyl (VFx.4.Cl) dyes stain the cell membranes of HEK293 cells when loaded at a concentration of 2 μM for 15 min at 37° C. in buffer with 0.1% DMSO as cosolvent (FIG. 9A, and FIG. 10). […] The bleach rates of the probes were tested in HEK cells and compared with di-4-ANEPPS. The bleach rates for VF1.4.Cl, VF2.4.Cl, and VF2.1.Cl at 7 W/cm^2 were measured to be 3.9±0.1×10^−2 s^−1, 1.8±0.1×10^−2 s^−1, and 8.0±0.1×10^−3 s^−1, respectively.
For studies to determine excitation sensitivity of dyes, illumination was provided by a Polychrom IV light source (T.I.L.L. Photonics GMBH) with a mechanical shutter (Uniblitz VS25). For all other studies, light was provided by an Xenon arc lamp powered by an Optiquip Power supply (Optiquip) with a mechanical shutter controlled by a Lambda 10-2 controller (Sutter). Light from the Xenon arc lamp was filtered through a 480 nm filter (30 nm bandpass, Chroma), a 510 nm dichroic (Semrock), a 530 nm emission filter (50 nm bandpass, Semrock), and focused through a 40×/1.4 oil objective. For di-4-ANEPPS imaging, a 625 nm emission filter with a 50 nm bandpass was used. Bleaching studies used identical illumination conditions (480/30 nm excitation, 510 nm dichroic, 7 W/cm^2 output) and were corrected by normalizing for the extinction coefficient at the excitation wavelengths (465-495 nm).

SMILES | Φ [1] | ε [1] | λem [1] | λmax [1] | bleach rate (HEK cells) | bleach rate, fold smaller than di-4-ANEPPS (HEK cells)
CCCCN(CCCC)c1ccc(/C=C/c2ccc(/C=C/c3ccc(-c4c5cc(Cl)c(=O)cc-5oc5cc(O)c(Cl)cc45)c(S(=O)(=O)O)c3)cc2)cc1 [VF2.4.Cl, 5-(4-(4-(dibutylamino)styryl)styryl)-2-(2,7-dichloro-6-hydroxy-3-oxo-3H-xanthen-9-yl)benzenesulfonic acid] | 0.054 | 97,000 M^−1·cm^−1 | 536 nm | 522 nm | 1.8±0.1×10^−2 s^−1 | four-
CN(C)c1ccc(/C=C/c2ccc(/C=C/c3ccc(-c4c5cc(Cl)c(=O)cc-5oc5cc(O)c(Cl)cc45)c(S(=O)(=O)O)c3)cc2)cc1 [VF2.1.Cl, 5-(4-(4-(dimethyllamino)styryl)styryl)-2-(2,7-dichloro-6-hydroxy-3-oxo-3H-xanthen-9-yl)benzenesulfonic acid] | 0.057 | 98 000 M^−1·cm^−1 | 535 nm | 522 nm | 8.0±0.1×10^−3 s^−1 | ninefold smaller
